Here are results for 25 compounds from patent publication US5276049A, “Cyclic urea derivatives, pharmaceutical compositions containing these compounds and methods of using the same” (Dr. Karl Thomae GmbH, priority 1991, dated 1994).

Structures can show the parent of a compound that is named as a salt. Some results are limits rather than exact numbers.

One assay relates to Human Thrombocytes. Kind of assay: Fibrinogen Binding to Human Thrombocytes (I125-fibrinogen, gel-filtered platelets). As to conditions: inhibition of I125-fibrinogen binding to gel-filtered human platelets, ADP, 20 minutes, ambient temperature; read-out: Fibrinogen Binding test IC50. A digest of the protocol: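 Gel-filtered human platelets (from citrated PRP, pH 7.4 Tris/citrate/glucose buffer) incubated 20 min at ambient temperature with test compound, CaCl2, ADP and I125-fibrinogen; non-specific binding with 3 mg/ml cold fibrinogen. Platelets spun through silicone oil, bound fibrinogen gamma-counted; IC50 from a concentration series.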

Assay [1] deals with thrombocyte aggregation in platelet-rich plasma. Kind of assay: Antithrombotic effect: collagen-induced thrombocyte aggregation in platelet-rich plasma (Born and Cross). The settings on record: human platelet-rich plasma, 10 minutes preincubation at 37° C., read-out: Inhibition of platelet aggregation EC50. Type of assay: cell-based. Summed up:
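Human platelet-rich plasma (citrated 1:10, 3.14%) incubated with compound 10 min at 37 °C, then aggregation triggered by minimal collagen giving irreversible response. Optical density change tracked photometrically (Born and Cross); EC50 determined graphically as 50% inhibition of optical density change.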

As usually defined, the IC50 is the midpoint of a concentration-inhibition curve. The EC50 is the midpoint of the concentration-response curve.

Turning to `COC(=O)CCc1ccc(-n2cnn(-c3ccc(C(=N)N)cc3)c2=O)cc1` [2(123), 2-(4-amidino-phenyl)-4-[4-(2-methoxycarbonyl-ethyl)-phenyl]-4H-1,2,4-triazol-3-one hydrochloride], the IC50 in the assay with Human Thrombocytes came to 3100 nM. Moreover, in assay [1], the EC50 worked out at 70 nM.
The matching figures for `N=C(N)c1ccc(-c2ccc(C3CN(CCC(=O)O)C(=O)N3)cc2)cc1` (centres unmarked) [4(15), 4-(4'-amidino-4-biphenylyl)-1-(2-carboxy-ethyl)-imidazolidin-2-one hydrochloride]: 42 nM and 300 nM.
For `COC(=O)C(N)Cc1ccc(N2CCN(c3ccc(CN)cc3)C2=O)cc1` (centres unmarked) [8(3), 1-[4-(2-amino-2-methoxycarbonyl-ethyl)-phenyl]-3-(4-aminomethyl-phenyl)-imidazolidin-2-one dihydrochloride], the IC50 with Human Thrombocytes stood at 29000 nM. The 50% effective concentration (EC50) in assay [1] was found to be 6200 nM.
The matching figures for `NC1CCc2cc(N3CCN(c4ccc(CCC(=O)O)cc4)C3=O)ccc21` (centres unmarked) [1(154), 1-(1-amino-5-indanyl)-3-[4-(2-carboxy-ethyl)-phenyl] -imidazolidin-2-one]: 28 nM and 310 nM.
Turning to `COC(=O)CCN1CCN(C2CCN(c3ccc(C(=N)N)cc3)CC2)C1=O` [4(11), 1-[1-(4-amidino-phenyl)-4-piperidinyl]-3-(2-methoxycarbonyl-ethyl)-imidazolidin-2-one hydrochloride], the 50% inhibitory concentration (IC50) in the assay with Human Thrombocytes was 45000 nM. Moreover, the EC50 in assay [1] turned out to be 2300 nM.
The matching figures for `N=C(N)c1ccc(N2CCC(N3CCN(CCC(=O)O)C3=O)CC2)cc1` [1(24), 1-[1-(4-amidino-phenyl)-4-piperidinyl]-3-(2-carboxy-ethyl)-imidazolidin-2-one]: 470 nM and 1100 nM.
In the case of `Cc1cc(CN)ccc1N1CCN(c2ccc(CCC(=O)O)cc2)C1=O` [1(156), 1-(4-aminomethyl-2-methyl-phenyl)-3-[4-(2-carboxy-ethyl)-phenyl]-imidazolidin-2-one], in the assay on Human Thrombocytes, the IC50 came to 3600 nM. Besides, the concentration for a half-maximal effect (EC50) in assay [1] was 4100 nM.
In the same order, the values of `COC(=O)CCC1CCC(N2CCN(c3ccc(C(=N)N)cc3)C2=O)CC1` (centres unmarked) [2(43), 1-(4-amidino-phenyl)-3-[4-(2-methoxycarbonyl-ethyl)-cyclohexyl]-imidazolidin-2-one hydrochloride] are 420 nM and 100 nM.
As for `N=C(N)c1ccc(N2CCN(c3ccc(SCC(=O)O)cc3)C2=O)cc1` [1(48), 1-(4-amidino-phenyl)-3-(4-carboxymethylthiophenyl)-imidazolidin-2-one], the IC50 with Human Thrombocytes is 210 nM. In addition, the half-maximal effective concentration (EC50) in assay [1] came to 1100 nM.
The matching figures for `COC(=O)CCc1ccc(N2CCCN(c3ccc(CN)cc3)C2=O)cc1` [8(1), 1-(4-aminomethyl-phenyl)-3-[4-(2-methoxycarbonyl-ethyl)-phenyl]-3,4,5,6-tetrahydro-1H-pyrimidin-2-one hydrochloride]: 68000 nM and 21000 nM.
On to `N=C(N)c1ccc(-c2ccc(-c3cn(CCC(=O)O)c(=O)n3-c3ccccc3)cc2)cc1` [1(119), 4-(4'-amidino-4-biphenylyl)-1-(2-Carboxy-ethyl)-3-phenyl-3H-imidazol-2-onehydrochloride], for which the IC50 in the assay with Human Thrombocytes was found to be 210 nM. Also, the half-maximal effective concentration (EC50) in assay [1] amounted to 730 nM.
In the same order, the values of `COC(=O)CN1CCN(c2ccc(-c3ccc(C(=N)N)cc3)cc2)C1=O` [Example 2, 1-(4'-Amidino-4-biphenylyl)-3-methoxycarbonylmethyl-imidazolidin-2-one hydrochloride] are 6000 nM and 12000 nM.
As for `COC(=O)C(Cc1ccc(-n2ccn(-c3ccc(C(=N)N)cc3)c2=O)cc1)N(Cc1ccccc1)Cc1ccccc1` (centres unmarked) [2(127), 1-(4-amidino-phenyl)-3-[4-(2-dibenzylamino-2-methoxycarbonyl-ethyl)-phenyl]-3H-imidazol-2-one hydrochloride], the concentration for half-maximal inhibition (IC50) in the assay on Human Thrombocytes was determined as 5600 nM. Also, the 50% effective concentration (EC50) in assay [1] amounted to 18000 nM.
In the same order, the values of `N=C(N)c1ccc(-c2cn(-c3ccc(CCC(=O)O)cc3)c(=O)n2-c2ccccc2)cc1` [1(94), 4-(4-amidino-phenyl)-1-[4-(2-carboxy-ethyl)-phenyl]-3-phenyl-3H-imidazol-2-one hydrochloride] are 310 nM and 400 nM.
In the same order, the values of `COC(=O)C[S+]([O-])c1ccc(N2CCN(c3ccc(C(=N)N)cc3)C2=O)cc1` (centres unmarked) [18(5), 1-(4-amidino-phenyl)-3-(4-methoxycarbonylmethyl-sulphinyl-phenyl)-imidazolidin-2-one] are 420 nM and 120 nM.
In the same order, the values of `COC(=O)CCn1cc(-c2ccc(-c3ccc(C(=N)N)cc3)cc2)[nH]c1=O` [2(104), 4-(4'-amidino-4-biphenylyl)-1-(2-methoxycarbonyl-ethyl)-3H-imidazol-2-one hydrochloride] are 7100 nM and 2100 nM.
On to `COC(=O)CCCCn1c(=O)n(-c2ccc(C(=N)N)cc2)c2ncccc21` [2(116), 3-(4-amidino-phenyl)-1-(4-methoxycarbonyl-butyl)-3H-imidazo[4,5-b]pyridin-2-one dihydrochloride], for which, in the assay on Human Thrombocytes, the concentration for half-maximal inhibition (IC50) is 59000 nM. Also, the EC50 in assay [1] was 49000 nM.
In the same order, the values of `COC(=O)CCN1CC(c2ccc(-c3ccc(C(=N)N)cc3)cc2)N(c2ccccc2)C1=O` (centres unmarked) [4(9), 4-(4'-amidino-4-biphenylyl)-1-(2-methoxycarbonyl-ethyl)-3-phenyl-imidazolidin-2-one hydrochloride] are 2600 nM and 9500 nM.
The matching figures for `N=C(N)c1ccc(N2CCN(CCc3ccc(C(=O)O)cc3)C2=O)cc1` [1(55), 1-(4-amidino-phenyl)-3-[2-(4-carboxyphenyl)-ethyl]-imidazolidin-2-one]: 860 nM and 60000 nM.
In the same order, the values of `COC(=O)COc1ccc(N2CCN(c3ccc(CN)cc3)C2=O)cc1` [Example 8, 1-(4-Aminomethyl-phenyl)-3-(4-methoxycarbonylmethyloxy-phenyl)-imidazolidin-2-one hydrochloride] are 750 nM and 600 nM.
In the case of `Cc1cc(C(=N)N)ccc1N1CCN(c2ccc(CCC(=O)O)cc2)C1=O` [1(36), 1-(4-amidino-2-methyl-phenyl)-3-[4-(2-carboxy-ethyl)-phenyl]-imidazolidin-2-one], in the assay on Human Thrombocytes, the 50% inhibitory concentration (IC50) amounted to 37 nM. Moreover, in assay [1], the EC50 was found to be 100 nM.
In the same order, the values of `COC(=O)c1ccc(CCN2CCN(c3ccc(C(=N)N)cc3)C2=O)cc1` [2(48), 1-(4-amidino-phenyl)-3-[2-(4-methoxycarbonyl-phenyl)-ethyl]-imidazolidin-2-one] are 22000 nM and greater than 100000 nM.
In the same order, the values of `N=C(N)c1ccc(-c2ccc(C3CN(CCC(=O)O)C(=O)N3c3ccccc3)cc2)cc1` (centres unmarked) [4(13), 4-(4'-amidino-4-biphenylyl)-1-(2-carboxy-ethyl)-3-phenyl-imidazolidin-2-one hydrochloride] are 32 nM and 310 nM.
The matching figures for `CC(N)c1ccc(N2CCN(c3ccc(CCC(=O)O)cc3)C2=O)cc1` (centres unmarked) [1(153), 1-[4-(1-amino-ethyl)-phenyl]-3-[4-(2-carboxy-ethyl)-phenyl]-imidazolidin-2-one]: 150 nM and 380 nM.
As for `N=C(N)c1ccc(-n2ccn(-c3ccc(CCC(=O)O)cc3)c2=O)cc1` [1(67), 1-(4-amidino-phenyl)-3-[4-(2-carboxy-ethyl)-phenyl]-3H-imidazol-2-one], in the assay with Human Thrombocytes, the half-maximal inhibitory concentration (IC50) turned out to be 30 nM. Besides, the EC50 in assay [1] was 60 nM.
